Biological target: Stimulator of interferon genes protein (Homo sapiens, UniProt Q86WV6)
Test: Human STING WT Binding Assay
Description: Cisbio Bioassays' human STING WT binding assay (#64BDSTGPEG & 64BDSTGPEH, Cisbio) is for quantitative measurement of human STING WT ligand using HTRF technology.1. Adding CompoundsNegative control: Dispense 5 μL of diluent into each negative control well. Standard: Dispense 5 μL of each Human STING WT Standard 2′3′-cGAMP (Std 0-Std 7) into each standard well. Compound: Dispense 5 μL of compound into each compound well.2. Adding ProteinsNegative control: Add 5 μL of detection buffer to all wells. Other wells: Add 5 μL of human STING WT protein 6His-tagged protein to all wells.3. Adding AntibodiesAdd 10 μL of premixed STING WT ligand d2 reagent and 6His Tb antibody working solution to all wells.4. RT IncubationSeal the plate and incubate 3 hours at RT or at Over Night if necessary.5. Reading PlateRemove the plate sealer and read on an HTRF compatible reader (PerkinElmer, USA). Results were analyzed with a two-wavelength signal ratio: intensity (665 nm)/intensity (620 nm).6.

Sequence of Stimulator of interferon genes protein (Q86WV6 whole entry): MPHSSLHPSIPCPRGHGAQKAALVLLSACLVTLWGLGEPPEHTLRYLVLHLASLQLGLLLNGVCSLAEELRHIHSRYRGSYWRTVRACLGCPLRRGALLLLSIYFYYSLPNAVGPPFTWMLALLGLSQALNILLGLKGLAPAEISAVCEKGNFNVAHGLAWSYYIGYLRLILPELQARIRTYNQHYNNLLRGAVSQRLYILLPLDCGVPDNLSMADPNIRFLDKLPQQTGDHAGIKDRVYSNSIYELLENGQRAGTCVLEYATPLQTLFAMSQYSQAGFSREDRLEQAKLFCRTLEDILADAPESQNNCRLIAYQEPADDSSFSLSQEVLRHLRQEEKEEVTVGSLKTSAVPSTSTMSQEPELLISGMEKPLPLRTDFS

## COC1C=C2CN(C(=O)CCC(=O)O)CC2=CC1OCCCOC1C=C2CN(C(=O)CCC(=O)O)CC2=CC1OC (stereo unspecified) [US20250108123, Example I-1]
  IC50: < 0.1 nM
